Assay results from patent US7732604B2, “Triazolopyrazine derivatives” (Pfizer Inc., priority 2006, dated 2010).
Where a name gives a salt, the structure may show the parent alone.

Molecular target: T1, HGFR (Homo sapiens, UniProt P08581)
T1 construct: purchased Upstate 14-526
Assay: HGFR continuous-coupled spectrophotometric assay (tyrosine kinase activity on Met-2 substrate peptide)
Type: biochemical
Settings: HGFR 50 nM, Met-2 peptide 0.5 mM, ATP 300 μM, 37° C., absorbance 340 nm; read-out: Ki

T1 sequence (P08581 974-1390 limits assumed): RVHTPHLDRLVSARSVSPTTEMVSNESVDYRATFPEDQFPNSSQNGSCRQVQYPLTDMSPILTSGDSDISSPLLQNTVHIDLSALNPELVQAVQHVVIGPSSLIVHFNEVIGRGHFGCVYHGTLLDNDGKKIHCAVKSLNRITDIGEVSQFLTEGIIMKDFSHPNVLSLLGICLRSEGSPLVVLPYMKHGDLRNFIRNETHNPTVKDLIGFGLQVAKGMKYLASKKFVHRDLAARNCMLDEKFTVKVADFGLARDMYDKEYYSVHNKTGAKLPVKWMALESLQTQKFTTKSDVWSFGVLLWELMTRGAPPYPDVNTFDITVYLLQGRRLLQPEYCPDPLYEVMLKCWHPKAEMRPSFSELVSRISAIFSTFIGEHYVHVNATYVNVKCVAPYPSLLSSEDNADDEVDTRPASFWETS

Ki [nM]	SMILES
30	CC(c1ccc2c(c1)OCCO2)n1nnc2ncc(-c3cnn(C)c3)nc21 (stereo in doubt) [Example 60, 1-[(S)-1-(2,3-Dihydro-benzo[1,4]dioxin-6-yl)-ethyl]-6-(1-methyl-1H-pyrazol-4-yl)-1H-[1,2,3]triazolo[4,5-b]pyrazine]
41	CC(CO)Nc1cnc2nnn(Cc3ccc4ncccc4c3)c2n1 (stereo in doubt) [Example 120, (2R)-2-{[1-(quino-lin-6-yl-methyl)-1H-[1,2,3]tri-azolo[4,5-b]pyra-zin-6-yl]ami-no}propan-1-ol]
30	N#CC1CCN(C2CCN(c3cnc4nnn(Cc5ccc6ncccc6c5)c4n3)C2)CC1 (stereo in doubt) [Example 148, 1-{(3R)-1-[1-(quino-lin-6-yl-methyl)-1H-[1,2,3]tri-azolo[4,5-b]pyra-zin-6-yl]pyrro-lidin-3-yl}pipe-ridine-4-carbo-nitrile]
21	OC1CCN(C2CCN(c3cnc4nnn(Cc5ccc6ncccc6c5)c4n3)C2)CC1 (stereo in doubt) [Example 170, 1-[(3R)-1-[1-(quino-lin-6-yl-methyl)-1H-[1,2,3]tri-azolo[4,5-b]pyra-zin-6-yl]pyrro-lidin-3-yl}pipe-ridin-4-ol]
42	CC(c1ccc2ncccc2c1)n1nnc2ncc(Br)nc21 (stereo in doubt) [Example 212, 6-[(S)-1-(6-Bromo-[1,2,3]triazolo [4,5-b]pyrazin-1-yl)-ethyl]-quinoline]
8	c1cnc2ccc(Cn3nnc4ncc(-c5cnn(C6CNC6)c5)nc43)cc2c1 [Example 1, 6-((6-(1-(azetidin-3-yl)-1H-pyrazol-4-yl)-1H-[1,2,3]-triazolo[4,5-b]pyrazin-1-yl)methyl)-quinoline]
11	NCCn1cc(-c2cnc3nnn(Cc4ccc5ncccc5c4)c3n2)cn1 [Example 2, 2-(4-(3-(quinolin-6-ylmethyl)-3H-[1,2,3]triazolo[4,5-b]pyrazin-5-yl)-1H-pyrazol-1-yl)ethanamine]
69	c1cnc2ccc(Cn3nnc4ncc(-c5cnn(CC6CCNCC6)c5)nc43)cc2c1 [Example 4]
11	COCCn1cc(-c2cnc3nnn(Cc4ccc5ncccc5c4)c3n2)cn1 [Example 6, 6-((6-(1-(2-methoxyethyl)-1H-pyrazol-4-yl)-1H-[1,2,3]triazolo[4,5-b]pyrazin-1-yl)methyl)-quinoline]
4	O=C(NC1CCNCC1)c1ccc(-c2cnc3nnn(Cc4ccc5ncccc5c4)c3n2)cc1 [Example 10, N-(piperidin-4-yl)-4-(3-(quinolin-6-ylmethyl)-3H-[1,2,3]triazolo[4,5-b]pyrazin-5-yl)benzamide]
4	NCCNC(=O)c1ccc(-c2cnc3nnn(Cc4ccc5ncccc5c4)c3n2)cc1 [Example 11, N-(2-aminoethyl)-4-(3-(quinolin-6-ylmethyl)-3H-[1,2,3]triazolo[4,5-b]pyrazin-5-yl)benzamide]
38	CN(C)CCN(C)C(=O)c1ccc(-c2cnc3nnn(Cc4ccc5ncccc5c4)c3n2)cc1 [Example 12, N-(2-(dimethylamino)ethyl)-N-methyl-4-(3-(quinolin-6-ylmethyl)-3H-[1,2,3]triazolo[4,5-b]pyrazin-5-yl)benzamide]
3	CN(C)CCNC(=O)c1ccc(-c2cnc3nnn(Cc4ccc5ncccc5c4)c3n2)cc1 [Example 13, N-(2-(dimethylamino)ethyl)-4-(3-(quinolin-6-ylmethyl)-3H-[1,2,3]triazolo[4,5-b]pyrazin-5-yl)benzamide]
40	CCOC(=O)c1cnn(-c2cnc3nnn(Cc4ccc5ncccc5c4)c3n2)c1 [Example 14, ethyl 1-(3-(quinolin-6-ylmethyl)-3H-[1,2,3]triazolo[4,5-b]pyrazin-5-yl)-1H-pyrazole-4-carboxylate]
3	Cc1cn(-c2cnc3nnn(Cc4ccc5ncccc5c4)c3n2)cn1 [Example 16, 6-((6-(4-methyl-1H-imidazol-1-yl)-1H-[1,2,3]triazolo[4,5-b]pyrazin-1-yl)methyl)-quinoline]
46	O=C(c1ccc(-c2cnc3nnn(Cc4ccc5ncccc5c4)c3n2)cc1)N1CCOCC1 [Example 17, morpholino(4-(3-(quinolin-6-ylmethyl)-3H-[1,2,3]triazolo[4,5-b]pyrazin-5-yl)phenyl)-methanone]
5	CNC(=O)c1cccc(-c2cnc3nnn(Cc4ccc5ncccc5c4)c3n2)c1 [Example 18, N-methyl-3-(3-(quinolin-6-ylmethyl)-3H-[1,2,3]triazolo[4,5-b]pyrazin-5-yl)benzamide]
3	CNC(=O)c1ccc(-c2cnc3nnn(Cc4ccc5ncccc5c4)c3n2)cc1 [Example 19, N-methyl-4-(3-(quinolin-6-ylmethyl)-3H-[1,2,3]triazolo[4,5-b]pyrazin-5-yl)benzamide]
3	COc1cccc(-c2cnc3nnn(Cc4ccc5ncccc5c4)c3n2)c1 [Example 20, 6-((6-(3-methoxyphenyl)-1H-[1,2,3]triazolo[4,5-b]pyrazin-1-yl)methyl)-quinoline]
4	COc1ccc(-c2cnc3nnn(Cc4ccc5ncccc5c4)c3n2)cc1 [Example 21, 6-((6-(4-methoxyphenyl)-1H-[1,2,3]triazolo[4,5-b]pyrazin-1-yl)methyl)-quinoline]

Ki [nM]	SMILES
12	c1cnc2ccc(Cn3nnc4ncc(-n5cccn5)nc43)cc2c1 [Example 22, 6-((6-(1H-pyrazol-1-yl)-1H-[1,2,3]triazolo[4,5-b]pyrazin-1-yl)methyl)-quinoline]
45	CN(C)C1CCN(c2cnc3nnn(Cc4ccc5ncccc5c4)c3n2)CC1 [Example 27]
15	OC1CCN(c2cnc3nnn(Cc4ccc5ncccc5c4)c3n2)CC1 [Example 28, 1-(3-(quinolin-6-ylmethyl)-3H-[1,2,3]triazolo[4,5-b]pyrazin-5-yl)piperidin-4-ol]
24	CN(C)[C@H]1CCN(c2cnc3nnn(Cc4ccc5ncccc5c4)c3n2)C1 [Example 29, (S)-N,N-dimethyl-1-(3-(quinolin-6-ylmethyl)-3H-[1,2,3]triazolo[4,5-b]pyrazin-5-yl)pyrrolidin-3-amine]
8	CN(C)[C@@H]1CCN(c2cnc3nnn(Cc4ccc5ncccc5c4)c3n2)C1 [Example 30, (R)-N,N-dimethyl-1-(3-(quinolin-6-ylmethyl)-3H-[1,2,3]triazolo[4,5-b]pyrazin-5-yl)pyrrolidin-3-amine]
59	N[C@@H]1CCCN(c2cnc3nnn(Cc4ccc5ncccc5c4)c3n2)C1 [Example 31, (R)-1-(3-(quinolin-6-ylmethyl)-3H-[1,2,3]triazolo[4,5-b]pyrazin-5-yl)piperidin-3-amine dihydrochloride]
69	N[C@H]1CCCN(c2cnc3nnn(Cc4ccc5ncccc5c4)c3n2)C1 [Example 32, (S)-1-(3-(quinolin-6-ylmethyl)-3H-[1,2,3]triazolo[4,5-b]pyrazin-5-yl)piperidin-3-amine dihydrochloride]
10	c1cnc2ccc(Cn3nnc4ncc(N5CCNCC5)nc43)cc2c1 [Example 33, 6-((6-(piperazin-1-yl)-1H-[1,2,3]triazolo[4,5-b]pyrazin-1-yl)methyl)quinoline]
33	CC(C)(C)OC(=O)NC1CCN(c2cnc3nnn(Cc4ccc5ncccc5c4)c3n2)CC1 [Example 34, tert-butyl 1-(3-(quinolin-6-ylmethyl)-3H-[1,2,3]triazolo[4,5-b]pyrazin-5-yl)piperidin-4-ylcarbamate]
2	OCc1ccc(-c2cnc3nnn(Cc4ccc5ncccc5c4)c3n2)cc1 [Example 36, (4-(3-(quinolin-6-ylmethyl)-3H-[1,2,3]triazolo[4,5-b]pyrazin-5-yl)phenyl)methanol]
4	OCc1cccc(-c2cnc3nnn(Cc4ccc5ncccc5c4)c3n2)c1 [Example 37, (3-(3-(quinolin-6-ylmethyl)-3H-[1,2,3]triazolo[4,5-b]pyrazin-5-yl)phenyl)methanol]
3	NCc1ccc(-c2cnc3nnn(Cc4ccc5ncccc5c4)c3n2)cc1 [Example 38, (4-(3-(quinolin-6-ylmethyl)-3H-[1,2,3]triazolo[4,5-b]pyrazin-5-yl)phenyl)methanamine]
21	O=C(O)c1ccc(-c2cnc3nnn(Cc4ccc5ncccc5c4)c3n2)cc1Cl [Example 39, 2-chloro-4-(3-(quinolin-6-ylmethyl)-3H-[1,2,3]triazolo[4,5-b]pyrazin-5-yl)benzoic acid]
12	O=C(O)c1cc(F)cc(-c2cnc3nnn(Cc4ccc5ncccc5c4)c3n2)c1 [Example 40, 3-fluoro-5-(3-(quinolin-6-ylmethyl)-3H-[1,2,3]triazolo[4,5-b]pyrazin-5-yl)benzoic acid]
36	Brc1cnc2nnn(Cc3ccc4c(c3)CCO4)c2n1 [Example 41, 6-Bromo-1-(2,3-dihydro-benzofuran-5-ylmethyl)-1H-[1,2,3]triazolo[4,5-b]pyrazine]
80	N[C@@H]1CCN(c2cnc3nnn(Cc4ccc5c(c4)CCO5)c3n2)C1 [Example 42, (R)-1-[3-(2,3-Dihydro-benzofuran-5-ylmethyl)-3H-[1,2,3]triazolo[4,5-b]pyrazin-5-yl]-pyrrolidin-3-ylamine]
45	CN(C)[C@@H]1CCN(c2cnc3nnn(Cc4ccc5c(c4)CCO5)c3n2)C1 [Example 43, {(R)-1-[3-(2,3-Dihydro-benzofuran-5-ylmethyl)-3H-[1,2,3]triazolo[4,5-b]pyrazin-5-yl]-pyrrolidin-3-yl}-dimethyl-amine]
88	CCc1cnc2nnn(Cc3ccc4ncccc4c3)c2n1 [Example 52, 6-(6-Ethyl-[1,2,3]triazolo[4,5-b]pyrazin-1-ylmethyl)-quinoline]
42	CC(c1ccc2c(c1)OCCO2)n1nnc2ncc(Br)nc21 (stereo not shown) [Example 54, 6-Bromo-1-[1-(2,3-dihydro-benzo[1,4]dioxin-6-yl)-ethyl]-1H-[1,2,3]tiazolo[4,5-b]pyrazine]
37	CC(c1ccc2c(c1)OCCO2)n1nnc2ncc(-c3cnn(C)c3)nc21 (stereo not shown) [Example 56, 1-[1-(2,3-Dihydro-benzo[1,4]dioxin-6-yl)-ethyl]-6-(1-methyl-1H-pyrazol-4-yl)-1H-[1,2,3]triazolo[4,5-b]pyrazine]
